pIC50: −log10 of the molar value. The source made the active and inactive calls. No cut-off for these calls is given here.
Experiments:
Adenosine kinase [1] = molecular target: T1, Adenosine kinase (Homo sapiens, UniProt P55263); test: Inhibition of human ADK using [3H]-adenosine by scintillation counting method
Target sequence in this assay (P55263 whole entry): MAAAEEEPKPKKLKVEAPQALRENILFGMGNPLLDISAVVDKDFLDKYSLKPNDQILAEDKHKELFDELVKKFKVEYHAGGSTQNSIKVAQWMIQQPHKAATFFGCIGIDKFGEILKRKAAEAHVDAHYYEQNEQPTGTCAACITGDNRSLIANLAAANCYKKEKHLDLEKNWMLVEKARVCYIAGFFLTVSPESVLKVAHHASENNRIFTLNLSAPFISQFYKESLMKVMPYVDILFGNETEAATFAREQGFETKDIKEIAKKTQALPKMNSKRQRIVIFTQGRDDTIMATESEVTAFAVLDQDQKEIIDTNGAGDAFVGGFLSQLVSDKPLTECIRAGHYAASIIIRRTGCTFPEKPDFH

[2] = Cytotoxicity against human BJ cells after 72 hrs by MTT assay; assay type: cell-based
[3] = Cytotoxicity against human MRC5 cells after 72 hrs by MTT assay; assay type: cell-based
Adenosine kinase [4] = molecular target: T1, Adenosine kinase; test: Activity of human ADK assessed as compound conversion to 5'-phosphate form incubated at 37 degC for 20 mins by HPLC method; design: concentration or dose not given beside the values
Target sequence in this assay (P55263 2-362 limits assumed): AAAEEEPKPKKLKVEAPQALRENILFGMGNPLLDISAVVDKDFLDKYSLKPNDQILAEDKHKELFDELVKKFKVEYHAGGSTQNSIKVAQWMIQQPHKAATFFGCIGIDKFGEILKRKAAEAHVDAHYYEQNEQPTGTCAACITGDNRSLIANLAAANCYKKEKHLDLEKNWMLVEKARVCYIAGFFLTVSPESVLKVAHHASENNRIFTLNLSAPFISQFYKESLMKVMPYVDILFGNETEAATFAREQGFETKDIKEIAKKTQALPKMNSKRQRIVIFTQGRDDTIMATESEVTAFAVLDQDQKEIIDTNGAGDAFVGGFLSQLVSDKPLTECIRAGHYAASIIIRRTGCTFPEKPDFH

Adenosine kinase [5] = molecular target: Adenosine kinase (Mycobacterium tuberculosis (strain CDC 1551 / Oshkosh), UniProt P9WID4); test: Inhibition of Mycobacterium tuberculosis ADK using [3H]-adenosine by scintillation counting method
[6] = molecular target: Adenosine kinase (Mycobacterium tuberculosis (strain CDC 1551 / Oshkosh)) (UniProt P9WID4); test: Activity of Mycobacterium tuberculosis ADK assessed as compound conversion to 5'-phosphate form incubated at 37 degC for 20 mins by HPLC method
Adenosine kinase (Mycobacterium tuberculosis (strain CDC 1551 / Oshkosh)), sequence (P9WID4 2-324 limits assumed): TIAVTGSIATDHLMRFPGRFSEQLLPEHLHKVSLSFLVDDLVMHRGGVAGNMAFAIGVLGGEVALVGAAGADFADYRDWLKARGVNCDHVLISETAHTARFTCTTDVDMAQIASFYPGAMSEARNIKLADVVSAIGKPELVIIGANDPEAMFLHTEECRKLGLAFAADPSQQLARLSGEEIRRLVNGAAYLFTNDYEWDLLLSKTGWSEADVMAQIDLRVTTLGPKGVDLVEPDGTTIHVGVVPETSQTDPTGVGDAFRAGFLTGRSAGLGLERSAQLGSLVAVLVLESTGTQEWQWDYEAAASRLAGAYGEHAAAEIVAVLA

Adenosine kinase (Mycobacterium tuberculosis (strain CDC 1551 / Oshkosh), UniProt P9WID4), sequence (P9WID4 whole entry): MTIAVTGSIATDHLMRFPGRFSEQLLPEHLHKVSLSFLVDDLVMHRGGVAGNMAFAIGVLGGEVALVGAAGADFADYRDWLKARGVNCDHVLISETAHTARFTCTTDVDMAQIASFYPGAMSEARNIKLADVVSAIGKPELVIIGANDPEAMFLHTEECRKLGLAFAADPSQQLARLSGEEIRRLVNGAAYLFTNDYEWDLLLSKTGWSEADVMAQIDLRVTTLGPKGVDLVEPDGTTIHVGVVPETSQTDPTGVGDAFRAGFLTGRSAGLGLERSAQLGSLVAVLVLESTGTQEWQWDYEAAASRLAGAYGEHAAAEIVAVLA

## OC[C@H]1O[C@@H](n2ccc3c(-c4ccco4)ncnc32)[C@H](O)[C@@H]1O
Adenosine kinase [1]
  pIC50: 5.89
[2]
  CC50 at 72 h: 230 nM
[3]
  CC50 at 72 h: 11800 nM
Adenosine kinase [4]
  Activity: 56%
Adenosine kinase [5]
  pIC50: 6.49
[6]
  Activity: inactive

## OC[C@H]1O[C@@H](n2cc(F)c3c(-c4nccs4)ncnc32)[C@H](O)[C@@H]1O
Adenosine kinase [1]
  pIC50: < 4.70
[2]
  CC50 at 72 h: 630 nM
[3]
  CC50 at 72 h: > 50000 nM
Adenosine kinase [4]
  Activity: 75%
Adenosine kinase [5]
  pIC50: 7.55
[6]
  Activity: inactive

## OC[C@H]1O[C@@H](n2ccc3c(-c4cn[nH]c4)ncnc32)[C@H](O)[C@@H]1O
Adenosine kinase [1]
  pIC50: < 4.70
[2]
  CC50 at 72 h: 42100 nM
[3]
  CC50 at 72 h: > 50000 nM
Adenosine kinase [4]
  Activity: 7%
Adenosine kinase [5]
  pIC50: 6.17
[6]
  Activity: inactive

## OC[C@H]1O[C@@H](n2cc(F)c3c(-c4cccs4)ncnc32)[C@H](O)[C@@H]1O
Adenosine kinase [1]
  pIC50: 5.96
[2]
  CC50 at 72 h: 170 nM
[3]
  CC50 at 72 h: 47200 nM
Adenosine kinase [4]
  Activity: 52%
Adenosine kinase [5]
  pIC50: 7.46
[6]
  Activity: inactive

## OC[C@H]1O[C@@H](n2cc(Cl)c3c(-c4ccsc4)ncnc32)[C@H](O)[C@@H]1O
Adenosine kinase [1]
  pIC50: < 5.00
[2]
  CC50 at 72 h: 1720 nM
[3]
  CC50 at 72 h: > 50000 nM
Adenosine kinase [4]
  Activity: 97%
Adenosine kinase [5]
  pIC50: 6.60
[6]
  Activity: inactive

## OC[C@H]1O[C@@H](n2cc(F)c3c(-c4cc[nH]c4)ncnc32)[C@H](O)[C@@H]1O
Adenosine kinase [1]
  pIC50: < 5.00
[2]
  CC50 at 72 h: 2020 nM
[3]
  CC50 at 72 h: 48900 nM
Adenosine kinase [4]
  Activity: 97%
Adenosine kinase [5]
  pIC50: 6.40
[6]
  Activity: inactive

## OC[C@H]1O[C@@H](n2cc(F)c3c(-c4ccc[nH]4)ncnc32)[C@H](O)[C@@H]1O
Adenosine kinase [1]
  pIC50: < 5.00
[2]
  CC50 at 72 h: 2990 nM
[3]
  CC50 at 72 h: 44400 nM
Adenosine kinase [4]
  Activity: 76%
Adenosine kinase [5]
  pIC50: 7.15
[6]
  Activity: inactive

Reference: ChEMBL document CHEMBL3132858, “6-Alkyl-, 6-aryl- or 6-hetaryl-7-deazapurine ribonucleosides as inhibitors of human or MTB adenosine kinase and potential antimycobacterial agents” (Medchemcomm, 2013)
